Source: publication PMC3214022, “Plasmodium falciparum Parasites Are Killed by a Transition State Analogue of Purine Nucleoside Phosphorylase in a Primate Animal Model” (PLoS ONE, 2011)

Experiments:
[1] = test system: P. falciparum cultures; experiment: Inosine and hypoxanthine rescue assay; type: cell-based, Plasmodium falciparum; settings: 15 µM BCX4945, hypoxanthine or inosine up to 200 µM, 72 h
Procedure: Synchronized, schizont stage parasites were washed in purine-free medium to remove excess hypoxanthine and inoculated into freshly drawn erythrocytes that had been washed and resuspended in purine-free medium. The schizont stage parasites were cultured in purine-free medium for 24 h to further reduce hypoxanthine inside the cell. […] Parasite viability was determined by DNA quantitation as described by Quashie and colleagues. For each condition, two independent experiments were carried out in triplicate.

[2] = test system: P. falciparum-infected erythrocytes; experiment: Metabolic labeling with [3H]inosine or [3H]hypoxanthine and HPLC analysis; type: cell-based, Plasmodium falciparum; settings: 10 µM BCX4945, 1 h labeling
Description: Samples were extracted with perchloric acid (PCA), neutralized and analyzed by HPLC as described.

[3] = test system: P. falciparum strain 3D7; experiment: 72 h in vitro growth inhibition test, PicoGreen DNA quantitation; type: cell-based; settings: Plasmodium falciparum, 3D7, 72 h
Procedure: (§1) Briefly, synchronous culture in the schizont stage was cultured for 24 h in media containing 10 µM of hypoxanthine. Ring stage parasite cultures (200 µl per well, with 1% hematocrit and 1% parasitaemia) were then grown for 72 h in the presence of increasing concentrations of the drug. After 72 h in culture, parasite viability was determined by DNA quantitation using PicoGreen (Invitrogen) as described by Quashie and colleagues. The half-maximum inhibitory concentration (IC50) calculation was performed with Origin software (OriginLab) using a nonlinear regression curve fitting. Half-maximum inhibitory concentration (IC50) is the concentration of inhibitor needed to kill 50% of parasites.

[4] = test system: P. falciparum strain Dd2; experiment: as above; type: cell-based; settings: Plasmodium falciparum, DD2, 72 h
Procedure: as §1

[5] = test system: P. falciparum strain FVO; experiment: as above; type: cell-based; settings: Plasmodium falciparum, chloroquine/quinine resistant strain FVO, 1% hematocrit, 10 µM hypoxanthine
Procedure: as §1

[6] = test system: purine salvage (hypoxanthine, inosine, adenosine, 2′-deoxyguanosine); experiment: Purine metabolites in plasma and blood cells of treated Aotus monkeys (UPLC-MS/MS); type: in vivo, Aotus lemurinus lemurinus
Procedure: Samples from blood cells, plasma and media were extracted and analyzed in duplicate. […] Samples were incubated for 20 min at 4 °C and neutralized with 5 M KOH at 10∶1 (v/v, HClO4/KOH) for 20 min at 4 °C. Plates were centrifuged (10 min at 4,000 rpm, 4°C) and supernatants were filtered through a MultiScreen® Filter Plate with Ultracel®-10 Membrane (Millipore). Metabolite and inhibitor levels were quantified by UPLC/MS/MS using a Xevo TQ mass spectrometer (Waters). […] Quantitative determination was performed in ESI positive-ion mode using multiple-reaction monitoring (MRM) mode. The ESI capillary voltage was 0.3 kV, source temperature was set at 150 °C and desolvation temperature at 450 °C. Data acquisition and analysis were carried out by MassLynx V4.1 and QuanLynx software (Waters). The concentration of the metabolites was calculated by interpolation of the observed analyte/internal standard peak-area ratio with the corresponding calibration curve.
Laboratory bred Aotus lemurinus lemurinus monkeys (0.75–0.89 kg) were maintained as described. […] Blood samples were collected before the treatment started (t = 0), 0.05 h, 0.5 h, 1 h, 2 h, 6 h, 24 h, 48 h, and 6, 12 and 18 days after the first dose from each monkey and processed as described below. Pharmacokinetic parameters were calculated using PKSolver. For efficacy studies, Aotus monkeys were inoculated intravenously with 5×10^6 parasites of the FVO strain of P. falciparum in an approved treatment protocol. […] Parasitaemia was determined by Giemsa-stained thick blood smears prepared daily from the marginal ear vein [41]. Blood samples were collected from each monkey and transferred to tubes containing lithium heparin, centrifuged and both plasma and blood cells were frozen at −80 °C until analysis. Animals received a physical examination and blood chemistry profiles were monitored after treatment as described previously. Any monkey not responding appropriately to treatment was cured of its infection with mefloquine (40 mg kg^−1). […] The day of clearance is defined as the first of three consecutive days in which the thick blood films are parasite negative. The day of recrudescence is the first of three consecutive days of positive thick blood films after a period of clearance. Suppression is defined as a transient decrease in the parasite count post-treatment without clearance.

[7] = infected Aotus under BCX4945 treatment

Nc1nc2c(CN3CC(O)C(CO)C3)c[nH]c2c(=O)[nH]1 (centres unmarked) [BCX4945, 4′-deaza-1′-aza-2′-deoxy-1′-(9-methylene)-Immucillin-G]
rescue of growth by purine supplementation [1]: Hypoxanthine, but not inosine, can bypass PNP inhibition
[3H]hypoxanthine incorporation into purine derivatives [2]: continues at reduced levels
[3H]inosine incorporation into the purine pool ([2]; schizont and trophozoite stages): complete inhibition
IC50 [3]: 164 ± 20 nM
IC50 [4]: 130 ± 22 nM
IC50 [5]: 202 ± 27 nM
hypoxanthine in plasma throughout the treatment period ([6]; 50 mg kg^−1 per dose twice a day): 0.3 ± 0.2 µM
2′-deoxyguanosine levels in plasma and blood cells ([6]; BCX4945 treatment): increased
hypoxanthine concentration in plasma and blood cells [6, 7]: below 0.3 µM
inosine concentration in plasma and blood cells [6, 7]: above 50 µM
hypoxanthine reappearing in the blood ([6]; infected animals, three days after the end of three-day oral treatment): ~30 µM
